Reference: US10202421B2, “Tumor-targeting compounds” (SKU Asset Management GmbH, priority 2009, dated 2019)
No end group written: not given here. *: point of attachment. For = O=C*

Key:
[1] = Size exclusion chromatography and dynamic light scattering analysis; assay type: physicochemical; conditions: size exclusion chromatography, dynamic light scattering
From the text: (§1) The peptide SEQ ID NO 1, […] showing specific binding activity to the tumor marker Erb-B1/EGFR was chosen as binder and the macrophage-activating peptide formyl-MLP as effector to synthesize structure 1. The structure was synthesized chemically by standard methods known in the art and purified by ion exchange chromatography. Chemical identity was verified by mass spectrometry.

granulocytes = test: Chemotaxis assay (trans-well assay for macrophage mobilization); assay type: cell-based
From the text: Concentration-dependent granulocyte activation of N-formyl peptide conjugates has been compared with activation of the peptide only. Each series of experiments has been repeated 3 times with 200,000 granulocytes each. […] Therefore, variations in the formyl peptide amino acid composition, e.g. different amino acid residues at position 3 (phenylalanine, proline) as in structure 1 and structure 2, provide a further means to tune the immune response.

human EGFR/Erb-B1 = molecular target: T1, human EGFR/Erb-B1 (Homo sapiens, UniProt P00533); test: Fluorescence spectroscopy binding/displacement test with NBD-labelled 12mer tracer and EGFR
T1 construct: purchased

Solubility at pH 7 = assay type: physicochemical
From the text: as §1

CC[C@H](C)[C@H](NC(=O)[C@@H](NC(=O)[C@H](CC(N)=O)NC(=O)[C@H](CCC(N)=O)NC(=O)[C@@H]1CCCN1C(=O)[C@@H](NC(=O)[C@H](Cc1ccc(O)cc1)NC(=O)CNC(=O)[C@H](Cc1ccc(O)cc1)NC(=O)[C@H](Cc1c[nH]c2ccccc12)NC(=O)[C@H](Cc1c[nH]cn1)NC(=O)[C@@H](N)Cc1ccc(O)cc1)[C@@H](C)O)C(C)C)C(=O)NCCOCCOCCOCCOCCOCCOCCOCCOCCOCCOCCOCCOCCOCCOCCOCCOCCOCCOCCOCCOCCOCCOCCOCCOCCOCCOCCOCCOCCC(=O)NCCCC[C@H](NC(=O)[C@H](CCCCNC(=O)CCOCCOCCOCCOCCOCCOCCOCCOCCOCCOCCOCCOCCOCCOCCOCCOCCOCCOCCOCCOCCOCCOCCOCCOCCOCCOCCOCCOCCNC(=O)[C@@H](NC(=O)[C@@H](NC(=O)[C@H](CC(N)=O)NC(=O)[C@H](CCC(N)=O)NC(=O)[C@@H]1CCCN1C(=O)[C@@H](NC(=O)[C@H](Cc1ccc(O)cc1)NC(=O)CNC(=O)[C@H](Cc1ccc(O)cc1)NC(=O)[C@H](Cc1c[nH]c2ccccc12)NC(=O)[C@H](Cc1c[nH]cn1)NC(=O)[C@@H](N)Cc1ccc(O)cc1)[C@@H](C)O)C(C)C)[C@@H](C)CC)NC(=O)[C@@H]1CCCN1C(=O)[C@H](CC(C)C)NC(=O)[C@H](CCSC)NC=O)C(=O)O [structure 1]
oligomers or large aggregates [1]: no oligomers or large aggregates | macrophage activation profile (granulocytes; trans-well assay): demonstrated | displacement of fluorescent tracer peptide from EGFR complex (human EGFR/Erb-B1; 1 µM EGFR/NBD-12mer complex titrated with increasing concentrations (FIG. 5d)): displacement of the fluorescent tracer | KD value for the interaction with EGFR (human EGFR/Erb-B1; displacement of fluorescently labelled 12mer from EGFR complex, estimated): low nM range | solubility (Solubility at pH 7): ≤ 10000 µg/mL

N-formyl-Met-Leu-Phe (For-Met-Leu-Phe) [fMLF]
stimulation of granulocyte chemotaxis (granulocytes; separate experiment): can be stimulated | chemotactic response compared to fMLP (granulocytes; separate experiment, granulocytes): slightly higher

N-formyl-Met-Leu-Pro (For-Met-Leu-Pro) [fMLP]
stimulation of granulocyte chemotaxis (granulocytes; separate experiment): can be stimulated

YHWYGYTPQNVI [unlabelled peptide, reference compound]
displacement of fluorescent tracer peptide from EGFR complex (fluorescence intensity) (human EGFR/Erb-B1; EGFR-tracer complex 50 nM, PBS pH 7.5, 10 fold excess of unlabelled peptide (FIG. 5c)): decrease in fluorescence intensity
